This note sets out measurements from ChEMBL document CHEMBL1126971, “Structure-activity relationships from molecular similarity matrices” (J Med Chem, 1993).

Test [1] deals with T1, Corticosteroid-binding globulin (Homo sapiens) (UniProt P08185).
T1 sequence (whole entry): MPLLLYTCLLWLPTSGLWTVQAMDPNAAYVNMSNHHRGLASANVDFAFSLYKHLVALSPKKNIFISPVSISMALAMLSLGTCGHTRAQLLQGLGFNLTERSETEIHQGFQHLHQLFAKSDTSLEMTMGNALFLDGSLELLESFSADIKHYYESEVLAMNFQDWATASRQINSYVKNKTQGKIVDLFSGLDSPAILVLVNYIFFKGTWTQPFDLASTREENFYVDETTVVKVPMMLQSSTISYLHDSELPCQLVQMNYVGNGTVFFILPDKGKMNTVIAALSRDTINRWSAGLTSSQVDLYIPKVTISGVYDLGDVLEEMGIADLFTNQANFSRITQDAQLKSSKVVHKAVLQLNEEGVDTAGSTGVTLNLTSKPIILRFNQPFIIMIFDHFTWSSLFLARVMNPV

Test [2] concerns the target T2, Sex hormone-binding globulin (Homo sapiens) (UniProt P04278).
T2 sequence (whole entry): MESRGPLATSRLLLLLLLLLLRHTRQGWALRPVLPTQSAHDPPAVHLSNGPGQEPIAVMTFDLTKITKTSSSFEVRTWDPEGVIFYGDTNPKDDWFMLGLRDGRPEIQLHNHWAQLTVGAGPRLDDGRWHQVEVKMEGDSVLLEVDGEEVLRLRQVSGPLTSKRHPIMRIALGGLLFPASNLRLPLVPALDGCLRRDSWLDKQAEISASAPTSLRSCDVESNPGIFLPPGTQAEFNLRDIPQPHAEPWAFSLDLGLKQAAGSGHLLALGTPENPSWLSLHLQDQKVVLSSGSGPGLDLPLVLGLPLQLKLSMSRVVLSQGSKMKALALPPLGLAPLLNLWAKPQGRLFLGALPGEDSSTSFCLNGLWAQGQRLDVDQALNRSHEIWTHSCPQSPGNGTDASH
Description: Binding affinity against testosterone-binding globulin (TeBG)

The target of test [3] is T1, Corticosteroid-binding globulin (Homo sapiens). This is another data set of the same source.
Test [4] shares this target. The experiment in a line: Binding affinity against corticosteroid-binding globulin (CBG).

Structures are written as SMILES.

Consider `C[C@]12CC[C@H](O)C[C@@H]1CC[C@@H]1[C@@H]2CC[C@]2(C)[C@@H](O)CC[C@@H]12`, for which the figures for the Log 1/K in test [1] and in test [2] were 5 and 9.11, respectively. For `C[C@]12CCC(=O)C=C1CC[C@@H]1[C@@H]2CC[C@]2(C)C(=O)CC[C@@H]12`, in that order: 5.76 and 7.46.

Turning to `CC(=O)[C@@]1(O)CC[C@H]2[C@@H]3CCC4=CC(=O)CC[C@]4(C)[C@H]3CC[C@@]21C`, the values for the Log 1/K in test [1] and in test [2] were 7.74 and 7, respectively.

In test [1], `C[C@]12CC[C@H]3[C@@H](CCC4=CC(=O)CC[C@@H]43)[C@@H]1CC[C@@H]2O` gave a Log 1/K of 6.14.

For the molecule `CC(=O)[C@H]1CC[C@H]2[C@@H]3CC=C4C[C@@H](O)CC[C@]4(C)[C@H]3CC[C@]12C`, the Log 1/K amounted to 5.22 in test [1] and 7.15 in test [2]. In test [1], `CC(=O)[C@H]1CC[C@H]2[C@@H]3CCC4=CC(=O)CC[C@]4(C)[C@H]3C(=O)C[C@]12C` had a Log 1/K of 6.78. Take `CC(=O)[C@@]1(O)CC[C@H]2[C@@H]3CC=C4C[C@@H](O)CC[C@]4(C)[C@H]3CC[C@@]21C`: the figures for the Log 1/K in test [1] and in test [2] were 5 and 6.36, respectively. As for `C[C@]12C[C@@H](O)[C@H]3[C@@H](CCC4=CC(=O)CC[C@@]43C)[C@@H]1CC[C@@H]2C(=O)CO`, the Log 1/K in test [1] was 7.2. Take `C[C@]12CC[C@@H]3c4ccc(O)cc4CC[C@H]3[C@@H]1C[C@@H](O)[C@H]2O`: the Log 1/K in test [1] was found to be 5; in test [2], 6.63. For `C[C@]12CC[C@H]3[C@@H](CCC4=CC(=O)CC[C@@]43C)[C@@H]1CC[C@@H]2C(=O)CO`, in that order: 7.65 and 7.38. As to `C[C@@H]1C[C@@]2(C)C(=CC1=O)CCC1C3CCC(C(=O)CO)[C@@]3(C)CC(O)[C@@]12F` (some centres not stated), the Log 1/K in test [1] amounted to 5.8. Turning to `C[C@]12CCC(=O)C=C1CC[C@@H]1[C@@H]2CC[C@@]2(C)[C@H]1CC[C@]2(O)C(=O)CO`, the Log 1/K in test [1] was 7.88; in test [2], 7.2. The molecule `CC(=O)[C@@]1(C)CCC2C3CCC4=CC(=O)CC[C@]4(C)C3CC[C@@]21C` (some centres not stated) returned a Log 1/K in test [1] of 7.12.

Regarding `CC(=O)OCC(=O)[C@@]1(O)CCC2C3CCC4=CC(=O)CC[C@]4(C)C3C(O)C[C@@]21C` (some centres not stated), in test [1], the Log 1/K stood at 7.55. Same read-out and setting: under `CC(=O)[C@@]1(O)[C@H](O)C[C@H]2[C@@H]3CCC4=CC(=O)CC[C@]4(C)[C@H]3CC[C@@]21C` stands 6.25. For the molecule `CC(=O)[C@H]1CC[C@H]2[C@@H]3CCC4=CC(=O)CC[C@]4(C)[C@H]3CC[C@]12C`, the Log 1/K was -7.38 in test [3] and 6.94 in test [2]. As to `C[C@]12CCC(=O)C=C1CCC1C3CC[C@H](C(=O)CO)[C@@]34C[C@H](OC4O)C12` (some centres not stated), the values for the Log 1/K in test [4] and in test [2] were 6.28 and 5.32, respectively.

`CC(=O)[C@H]1CC[C@H]2[C@@H]3CCC4=CC(=O)CC[C@@H]4[C@H]3CC[C@]12C`: the Log 1/K in test [1] turned out to be 6.82. Turning to `C[C@]12CCC(=O)C=C1CC[C@@H]1[C@@H]2[C@@H](O)C[C@@]2(C)[C@H]1CC[C@]2(O)C(=O)CO`, the Log 1/K in test [1] is 7.88; in test [2], 6.2.

As to `C[C@]12CC[C@H](O)CC1=CC[C@@H]1[C@@H]2CC[C@]2(C)C(=O)CC[C@@H]12`, the Log 1/K in test [1] was determined as 5; in test [2] it was 7.82. In test [1], `C[C@]12C=CC(=O)C=C1CC[C@@H]1[C@@H]2[C@@H](O)C[C@@]2(C)[C@H]1CC[C@]2(O)C(=O)CO` displayed a Log 1/K of 7.51.

For `C[C@]12C[C@H](O)[C@H]3[C@@H](CCC4=CC(=O)CC[C@@]43C)[C@@H]1CC[C@@H]2C(=O)CO`, the Log 1/K in test [1] was determined as 7.88; in test [2], 6.34. Taken in the same sequence, the figures for `C[C@]12CCC(=O)C=C1CC[C@@H]1[C@@H]2C(=O)C[C@@]2(C)[C@H]1CC[C@]2(O)C(=O)CO` were 6.89 and 6.43.
